Experimental data from patent US12637474B2, “Five-membered heteroaromatic imidazole compound and use thereof” (Hangzhou Sciwind Biosciences Co., Ltd, priority 2020, dated 2026).
Each block holds one molecule with its values, some of them ahead of it.

Legend:
Human-GLP1 = target: T1, Human-GLP1 (Homo sapiens, UniProt P43220); assay: In vitro cell activity test (cAMP detection, GLP-1 HEK293 cells); type: cell-based; conditions: HEK293 cells expressing GLP-1 target
T1 construct: the earlier reading says HEK293
T1 sequence (P43220 24-463): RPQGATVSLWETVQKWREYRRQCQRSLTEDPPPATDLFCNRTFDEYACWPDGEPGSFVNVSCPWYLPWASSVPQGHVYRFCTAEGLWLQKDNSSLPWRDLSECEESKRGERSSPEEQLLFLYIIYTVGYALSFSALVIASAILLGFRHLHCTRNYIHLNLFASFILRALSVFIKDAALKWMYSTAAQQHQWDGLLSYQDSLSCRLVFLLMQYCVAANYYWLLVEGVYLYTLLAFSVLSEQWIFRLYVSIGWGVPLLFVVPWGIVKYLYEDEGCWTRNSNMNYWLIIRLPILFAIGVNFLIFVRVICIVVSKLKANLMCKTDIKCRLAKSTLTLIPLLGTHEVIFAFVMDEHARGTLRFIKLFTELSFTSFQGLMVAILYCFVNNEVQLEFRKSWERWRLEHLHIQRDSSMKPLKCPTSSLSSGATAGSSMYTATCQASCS
Description: Experimental Embodiment 1. In Vitro Cell Activity Test
The cell was constructed by Shanghai WuXi AppTec New Pharmaceutical Development Co., Ltd. The detailed information is as follows.
The compound was formulated to a working concentration of 30 μM with DMSO. In this experiment, the amount of each sample used was 5 μL.
The pH value was adjusted to 7.4 and diluted to 25 mL with HBSS 1×.
Preparation of cAMP detection reagent, 250 μL of cAMP-D2 and 250 μL of anti-cAMP cryptate reagent were added to 4 mL of lysis buffer, and the mixture was mixed gently.
The compound to be tested was 3-fold diluted at 10 points, the initial concentration was 30 μM, and the dilution was completed and treated by Bravo.
The reference compound exenatide was 3-fold diluted at 10 points, the initial concentration was 500 nM, and the dilution was completed and treated by Bravo.
• 1) 100 nL of the compound was transferred to OptiPlate-384 plate using Echo. • 2) The OptiPlate-384 plate was centrifuged at 1000 rpm for 5 seconds. c) Preparation of Cell Suspension • 1) A cryopreservation tube of GLP-1 cells was quickly thawed in 37° C. warm water. • 2) The cell suspension was transferred to a Transfer 15 mL centrifuge tube, and rinsed gently with 10 mL of HBSS. • 3) The centrifuge tube was centrifuged at 1000 rpm for 1 minute at room temperature. • 4) The supernatant was discarded. • 5) The bottom cells were gently homogenized and then gently rinsed with 10 mL of HBSS, centrifuged and settled, the cells were finally re-suspend with experimental buffer. • 6) Cell density and activity were measured by Vi-cell. • 7) The concentration of GLP-1 cells was diluted to 2.0*10^5/mL with experimental buffer. • 8) […] of diluted cell suspension was transferred into OptiPlate-384 plate. • 9) The cells was incubated at room temperature for 30 minutes. d) Detection Reagent was Added: • 1) 10 μL of 800 nM gradient diluted cAMP standard was added to the empty well of OptiPlate-384 plate. • 2) 10 μL of cAMP detection reagent was added. • 3) The OptiPlate-384 plate was covered with TopSeal-A film and incubated at room temperature for 60 minutes.
TopSeal-A was removed and read by EnVision.

DMPK study in mice = type: in vivo; conditions: male C57 mice, plasma; for Oral DNAUC / bioavailability / Cmax: oral 5 mg/kg; for Oral DNAUC: DNAUC=AUCPO/Dose; for half-life / bioavailability / clearance / Vd / Cmax: mouse; for half-life: oral, 5 mg/kg; for half-life / clearance / Vd: single dose; for Vd: read-out: Vdss
Description: Male C57 mice were used as test animals, after a single dose, the plasma concentration of the compound was determined and the pharmacokinetic behavior was evaluated.
Three healthy adult male C57 mice were selected as oral group. In the oral group, the solvent was 20% PEG400/10% solutol/70% water, the compounds to be tested were mixed with the solvent, the mixture was votexed and sonicated to prepare a 0.5 mg/mL clear solution. After oral administration of 5 mg/kg, the whole blood of mice was collected for a certain period of time, and the plasma was prepared, the drug concentration was analyzed by LC-MS/MS, and the pharmacokinetic parameters were calculated by Phoenix WinNonlin software (Pharsight Company, USA).
Note: -- refers to untested; PEG refers to polyethylene glycol; solutol refers to polyethylene glycol-15 hydroxystearate; Cmax refers to maximum concentration; DNAUC=AUCPO/Dose, AUCPO refers to oral exposure and Dose refers to drug dose; Vdss refers to distribution volume; Cl refers to clearance rate; T1/2 refers to half-life.

[1] = DMPK study in cynomolgus monkey; type: in vivo; conditions: male cynomolgus monkey, plasma; for Cmax / Oral DNAUC / bioavailability: oral 3 mg/kg; for Vd: read-out: Vdss
Description: Male cynomolgus monkey were used as test animals, after a single dose, the plasma concentration of the compound was determined and the pharmacokinetic behavior was evaluated.
Two healthy male cynomolgus monkeys were selected as the oral group. The solvent of the oral group was 20% PEG 400+10% solutol+70% water. The compounds to be tested were mixed with the solvent, the mixture was votexed and sonicated to prepare a 0.5 mg/mL approximately clear solution. The oral dosage of cynomolgus monkeys was 3 mg/kg, after oral administration, the whole blood of cynomolgus monkeys was collected for a certain period of time, and the plasma was prepared, the drug concentration was analyzed by LC-MS/MS, and the pharmacokinetic parameters were calculated by Phoenix WinNonlin software (Pharsight Company, USA).

hERG potassium channel = target: T2, hERG potassium channel (Homo sapiens, UniProt Q12809); assay: hERG test (automatic patch clamp, CHO-hERG cells); type: cell-based; conditions: hERG current; for IC50: Qpatch; for Maximum concentration inhibition rate (%): highest test concentration 40 μM
T2 construct: expressed in transfected cells; host or cells: CHO-hERG cells
T2 sequence (Q12809 whole entry): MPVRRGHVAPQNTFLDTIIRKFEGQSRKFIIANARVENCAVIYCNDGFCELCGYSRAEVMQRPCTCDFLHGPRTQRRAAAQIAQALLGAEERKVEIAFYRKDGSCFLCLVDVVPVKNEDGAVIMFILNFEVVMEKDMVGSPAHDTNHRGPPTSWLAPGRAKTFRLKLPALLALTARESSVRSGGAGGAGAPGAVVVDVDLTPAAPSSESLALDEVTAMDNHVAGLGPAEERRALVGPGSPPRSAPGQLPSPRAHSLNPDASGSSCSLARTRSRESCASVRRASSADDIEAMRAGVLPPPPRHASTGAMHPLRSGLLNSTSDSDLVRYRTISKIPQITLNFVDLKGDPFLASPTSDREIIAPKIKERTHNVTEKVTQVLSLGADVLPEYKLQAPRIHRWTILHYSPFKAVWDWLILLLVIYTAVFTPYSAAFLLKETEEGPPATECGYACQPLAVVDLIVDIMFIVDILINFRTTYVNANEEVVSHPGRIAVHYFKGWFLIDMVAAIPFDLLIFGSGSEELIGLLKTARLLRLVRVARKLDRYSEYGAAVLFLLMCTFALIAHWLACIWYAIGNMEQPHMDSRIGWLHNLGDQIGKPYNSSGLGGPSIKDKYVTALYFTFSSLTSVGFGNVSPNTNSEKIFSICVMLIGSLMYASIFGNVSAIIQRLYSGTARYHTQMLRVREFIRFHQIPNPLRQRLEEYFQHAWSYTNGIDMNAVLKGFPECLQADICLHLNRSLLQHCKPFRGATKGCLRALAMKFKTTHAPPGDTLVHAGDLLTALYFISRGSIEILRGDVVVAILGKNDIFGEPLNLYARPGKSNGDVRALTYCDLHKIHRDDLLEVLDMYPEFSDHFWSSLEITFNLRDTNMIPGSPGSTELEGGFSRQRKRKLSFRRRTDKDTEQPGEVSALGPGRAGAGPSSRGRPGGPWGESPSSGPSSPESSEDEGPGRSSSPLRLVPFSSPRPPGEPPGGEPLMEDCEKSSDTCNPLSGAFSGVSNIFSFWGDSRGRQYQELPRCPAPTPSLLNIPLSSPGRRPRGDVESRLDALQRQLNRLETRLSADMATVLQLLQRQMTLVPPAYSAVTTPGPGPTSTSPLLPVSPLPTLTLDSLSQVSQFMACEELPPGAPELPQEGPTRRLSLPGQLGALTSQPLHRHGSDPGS
Description: The effects of compounds on the current of hERG potassium channel (human Ether-a-go-go Related Gene potassium channel) were measured by the automatic patch clamp method.
CHO-hERG cells were cultured in a 175 cm^2 flask, when the cell density reached 60-80%, the culture medium was removed, the cells were washed once with 7 mL of PBS (Phosphate Buffered Saline), and then detached with 3 mL of Detachin. After digestion was completed, 7 mL of culture medium was added to neutralize, then the mixture was centrifuged, the supernatant was aspirated, and then 5 mL of culture medium was added to re-suspend, ensuring 2-5×10^6/mL of cell density.
Extracellular fluid formulation (mM): 140 NaCl, 5 KCl, 1 CaCl2, 1.25 MgCl2, 10 HEPES and 10 Glucose, the pH value was adjusted to 7.4 with NaOH.
Intracellular fluid formulation (mM): 140 KCl, 1 MgCl2, 1 CaCl2, 10 EGTA and 10 HEPES, the pH value was adjusted to 7.2 with KOH.
The process of single cell high impedance sealing and whole cell mode formation were all automatically completed by Qpatch instrument, after obtaining the whole cell recording mode, the cells were clamped at −80 mV, before giving a 5-second+40 mV depolarization stimulus, a 50 millisecond −50 mV prevoltage was given first, and then repolarized to −50 mV for 5 seconds, then returned to −80 mV. This voltage stimulation was applied every 15 seconds and after recording for 2 minutes, extracellular fluid was recordings for 5 minutes, and then the administration process was started, the compound concentration was given from the lowest test concentration, each test concentration was given for 2.5 minutes, and 3 μM of Cisapride as the positive control compound was given after all concentrations were continuously given. At least 3 cells (n>3) were tested at each concentration.
The mother liquor of the compound was diluted with DMSO, and 10 μL of mother liquor of the compound was added to 20 μL of DMSO solution, and was 3-fold diluted continuously to 6 DMSO concentrations. 4 μL of compounds with 6 DMSO concentrations were added to 396 μL of extracellular fluid, 100-fold diluted to 6 intermediate concentrations, and then 80 μL of the compounds with 6 intermediate concentrations were added to 320 μL of extracellular fluid, 5-fold diluted to the final concentration to be tested. The highest test concentration was 40 μM, in a total of 6 concentrations of 40, 13.3, 4.4, 1.48, 0.494 and 0.165 μM respectively. The content of DMSO in the final test concentration was not more than 0.2%, and this concentration of DMSO had no effect on hERG potassium channel. The whole dilution process of compound preparation was completed by Bravo instrument.
The experimental data were analyzed by GraphPad Prism 5.0 software. […]

[2] = Permeability test (MDR1-MDCKII monolayer cell model); type: in vitro ADME; conditions: dog, MDCK-MDR1, incubation 150 min; for Papp B→A at 150 min, 2 μM: basal end to top; for Papp A→B at 150 min, 2 μM: top to basal end
Description: (§1) The objective of this study was to determine the bidirectional permeability and efflux rate of the samples by using MDR1-MDCKII monolayer cell model.
(§2) MDR1-MDCKII cells (11th generation) were inoculated into 96-well cell culture plate and cultured continuously for 4-7 days for transport experiment. The sample was administered in both directions at a concentration of 2.00 μM. After incubation for 150 min, the sample was collected and the content of the test product in the sample was determined by liquid chromatography-tandem mass spectrometry (LC-MS/MS).
(§3) When the administration concentration was 2.00 μM, the average apparent permeability coefficient (Papp) of the test product from the top to the basal end (A-B) direction, the average apparent permeability coefficient from the basal end to the top (B-A) direction, and the efflux ratio (ER) are shown in Table 5. Note: The boundaries of low and high permeability grades were equivalent to 50% and 80% of human “calculated Fa”. The grading criteria were based on WuXi AppTec's routine MDR1-MDCK II permeability test (test concentration was 2 μM, incubation for 2.5 hours).

MDR1 (P-gp) = assay: as above; type: in vitro ADME; conditions: dog, MDCK-MDR1, incubation 150 min, read-out: Efflux rate
Description: as §1, §2, §3

MDR1-MDCKII cells = assay: as above; type: in vitro ADME; conditions: 2.00 μM, low/high boundaries equivalent to 50% and 80% of human calculated Fa
Description: as §1, §2, §3

EC50 (Human-GLP1): 1.64 nM
SMILES: O=C(O)c1cc2c(nc(CN3CC=C(c4ccc(F)c(OCc5ccc(Cl)cc5F)n4)CC3)n2C[C@@H]2CCO2)s1 [WXA015]

Oral DNAUC (DMPK study in mice): 301.8 nM.h/mpk
half-life (DMPK study in mice): 148 min
bioavailability (DMPK study in mice): 63%
clearance (DMPK study in mice): 63.6 mL/min/kg
Vd (DMPK study in mice): 2.84 L/kg
Cmax (DMPK study in mice): 835 nM
Cmax [1]: 245 nM
Oral DNAUC [1]: 889 nM.h/mpk
half-life ([1]; oral, 3 mg/kg, single dose): 296 min
bioavailability [1]: 31%
clearance ([1]; single dose): 10.7 mL/min/kg
Vd ([1]; single dose): 0.59 L/kg
Papp B→A at 150 min, 2 μM [2]: 8.49 ×10⁻⁶ cm/s
Papp A→B at 150 min, 2 μM [2]: 7.19 ×10⁻⁶ cm/s
efflux ratio at 150 min, 2 μM (MDR1 (P-gp)): 1.18
Rank (permeability grade) (MDR1-MDCKII cells): High
SMILES: O=C(O)c1cc2c(nc(CN3CC=C(c4cccc(OCc5ccc(Cl)cc5F)n4)CC3)n2C[C@@H]2CCO2)s1 [WXA005]
IC50 (hERG potassium channel): > 40 µM
Maximum concentration inhibition rate (%) (hERG potassium channel): 33.1%

EC50 (Human-GLP1): 9.4 nM
SMILES: O=C(O)c1cc2nc(CN3CC=C(c4cccc(OCc5ccc(Cl)cc5F)c4)CC3)n(C[C@@H]3CCO3)c2s1 [WXA012]

EC50 (Human-GLP1): 1.44 nM
Oral DNAUC (DMPK study in mice): 307.4 nM.h/mpk
half-life (DMPK study in mice): 85.8 min
Cmax (DMPK study in mice): 865 nM
SMILES: O=C(O)c1cc2nc(CN3CC=C(c4cccc(OCc5ccc(Cl)cc5F)n4)CC3)n(C[C@@H]3CCO3)c2s1 [WXA006]

EC50 (Human-GLP1): 0.2 nM
SMILES: O=C(O)c1sc2nc(CN3CC=C(c4cccc(OCc5ccc(Cl)cc5F)n4)CC3)n(C[C@@H]3CCO3)c2c1F [WXA007]

EC50 (Human-GLP1): 9.6 nM
SMILES: N#Cc1ccc(COc2cccc(C3=CCN(Cc4nc5cc(C(=O)O)sc5n4C[C@@H]4CCO4)CC3)c2)c(F)c1 [WXA014]

EC50 (Human-GLP1): 1.94 nM
SMILES: O=C(O)c1cc2c(nc(CN3CC=C(c4cccc(OCc5ccc(Cl)cc5F)c4)CC3)n2C[C@@H]2CCO2)s1 [WXA011]

EC50 (Human-GLP1): 2.46 nM
SMILES: Cc1c(C(=O)O)sc2nc(CN3CC=C(c4cccc(OCc5ccc(Cl)cc5F)n4)CC3)n(C[C@@H]3CCO3)c12 [WXA008]

EC50 (Human-GLP1): 1.07 nM
SMILES: N#Cc1ccc(COc2cccc(C3CCN(Cc4nc5sc(C(=O)O)cc5n4C[C@@H]4CCO4)CC3)n2)c(F)c1 [WXA003]

EC50 (Human-GLP1): 2.7 nM
SMILES: N#Cc1ccc(COc2cccc(C3=CCN(Cc4nc5cc(C(=O)O)sc5n4C[C@@H]4CCO4)CC3)n2)c(F)c1 [WXA002]

EC50 (Human-GLP1): 1.9 nM
SMILES: N#Cc1ccc(COc2cccc(C3CCN(Cc4nc5cc(C(=O)O)sc5n4C[C@@H]4CCO4)CC3)n2)c(F)c1 [WXA004]

EC50 (Human-GLP1): 0.67 nM
Oral DNAUC (DMPK study in mice): 647.4 nM.h/mpk
half-life (DMPK study in mice): 124 min
bioavailability (DMPK study in mice): 220%
clearance (DMPK study in mice): 104 mL/min/kg
Vd (DMPK study in mice): 1.87 L/kg
Cmax (DMPK study in mice): 1760 nM
Cmax [1]: 28.3 nM
Oral DNAUC [1]: 74 nM.h/mpk
bioavailability [1]: 5.6%
clearance ([1]; single dose): 22.7 mL/min/kg
Vd ([1]; single dose): 0.73 L/kg
Papp B→A at 150 min, 2 μM [2]: 3.87 ×10⁻⁶ cm/s
Papp A→B at 150 min, 2 μM [2]: 2.53 ×10⁻⁶ cm/s
efflux ratio at 150 min, 2 μM (MDR1 (P-gp)): 1.53
Rank (permeability grade) (MDR1-MDCKII cells): Medium
SMILES: N#Cc1ccc(COc2cccc(C3=CCN(Cc4nc5sc(C(=O)O)cc5n4C[C@@H]4CCO4)CC3)n2)c(F)c1 [WXA001]
IC50 (hERG potassium channel): > 40 µM
Maximum concentration inhibition rate (%) (hERG potassium channel): 30.4%

EC50 (Human-GLP1): 2.46 nM
SMILES: N#Cc1ccc(COc2cccc(C3=CCN(Cc4nc5sc(C(=O)O)cc5n4C[C@@H]4CCO4)CC3)c2)c(F)c1 [WXA013]

EC50 (Human-GLP1): 3.52 nM
SMILES: O=C(O)c1cc2nc(CN3CC=C(c4ccc(F)c(OCc5ccc(Cl)cc5F)n4)CC3)n(C[C@@H]3CCO3)c2s1 [WXA016]
